Reference: patent US20240360148A1 (SUVALENT THERAPEUTICS, INC., priority 2021, published 2024)

What follows are compounds tested against SAE1 (Homo sapiens (Human), UniProt Q9UBE0+Q9UBT2) (assay: SAE High Throughput Biochemical Assay (HTRF), 15 min preincubation). Conditions: read-out: 15 min preincubation HTRF IC50 (μM) Ave, SAE1 12.5 nM, ATP 100 μM.
Method: Assay buffer was prepared [50 mM HEPES, pH 7.5, 0.1% BSA and 10 mM MgCl2] as was the Stop Buffer [100 mM HEPES, pH 7.5, 0.05% Tween20, and 410 mM KF]. The 2×Reaction Buffer [80 nM SUMO-GST, 80 nM UBC9-His, 200 μM ATP and diluted in Assay Buffer] and Antibody Reaction Mix [13.34 nM anti-GSTXL665, 1.66 nM anti-His EuK and Diluted in Stop Buffer] were also prepared. Compounds were dissolved at 200×in DMSO in a 384-well plate. Serial dilutions were performed in DMSO for each compound, and then each concentration was diluted another 50-fold in Assay Buffer, to 4× the final concentration. 2.5 μL of each concentration was transferred into its own well in a 384-well plate. SAE1 was then diluted to 4× in Assay Buffer, and 2.5 μL of 4×SAE1 was mixed into each compound-containing well. After incubating for 15 minutes at RT, 5 μL of 2×Reaction Buffer was mixed into every well. Then after another 45 minutes at RT, 10 μL of Antibody Reaction Mix was added and mixed into every well. This plate was then read on an HTRF-compatible plate reader after 2 hours at RT, and again after sitting at RT overnight. [Final Component Concentrations: SAE1: 12.5 nM; SUMO-GST: 40 nM; UBC9-His: 40 nM; Anti-GST-XL665: 6.67 nM; Anti-His-EuK: 0.83 nM; and ATP: 100 μM] Alternatively, the compounds are tested at a single concentration of 25 micromolar and the percent of control is measured.

Sequence of SAE1 (Q9UBE0 whole entry): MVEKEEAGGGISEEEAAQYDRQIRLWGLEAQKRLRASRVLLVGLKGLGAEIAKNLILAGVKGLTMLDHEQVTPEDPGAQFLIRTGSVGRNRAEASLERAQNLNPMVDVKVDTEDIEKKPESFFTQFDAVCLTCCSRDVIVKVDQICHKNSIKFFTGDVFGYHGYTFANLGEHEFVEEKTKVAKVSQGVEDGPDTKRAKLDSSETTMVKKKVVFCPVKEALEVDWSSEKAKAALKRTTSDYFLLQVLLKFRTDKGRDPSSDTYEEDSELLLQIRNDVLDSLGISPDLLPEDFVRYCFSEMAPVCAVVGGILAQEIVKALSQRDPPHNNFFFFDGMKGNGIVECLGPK
Sequence of SAE1 (Q9UBT2 whole entry): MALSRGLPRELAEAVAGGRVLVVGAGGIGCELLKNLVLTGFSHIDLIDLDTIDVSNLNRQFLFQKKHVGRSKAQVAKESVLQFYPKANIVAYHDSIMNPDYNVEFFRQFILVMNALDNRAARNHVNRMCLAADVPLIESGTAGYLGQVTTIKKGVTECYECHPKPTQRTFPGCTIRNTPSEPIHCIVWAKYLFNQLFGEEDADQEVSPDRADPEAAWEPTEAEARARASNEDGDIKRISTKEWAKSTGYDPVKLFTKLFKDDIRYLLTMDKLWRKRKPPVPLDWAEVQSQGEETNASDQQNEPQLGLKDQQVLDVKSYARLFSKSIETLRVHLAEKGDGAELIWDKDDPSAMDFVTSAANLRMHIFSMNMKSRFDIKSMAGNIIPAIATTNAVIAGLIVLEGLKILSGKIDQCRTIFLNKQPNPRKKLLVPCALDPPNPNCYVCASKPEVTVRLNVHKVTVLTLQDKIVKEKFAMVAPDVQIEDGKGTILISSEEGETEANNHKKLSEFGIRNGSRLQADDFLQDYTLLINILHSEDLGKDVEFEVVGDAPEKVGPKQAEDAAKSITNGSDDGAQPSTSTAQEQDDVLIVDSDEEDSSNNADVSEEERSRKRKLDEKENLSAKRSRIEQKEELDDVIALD

Going from `CCn1cc(-c2ccccc2[C@@H]2CN(C(=O)/C=C/C(c3ccccc3)N(C)C)Cc3sc(C#N)cc32)c(C(F)(F)F)n1` (stereo partly drawn) [Example 26, (4S)-6-((E)-4-(Dimethylamino)-4-phenylbut-2-enoyl)-4-(2-(1-ethyl-3-(trifluoromethyl)-1 H-pyrazol-4-yl)phenyl)-4,5,6,7-tetrahydrothieno[2,3-c]pyridine-2-carbonitrile] to `C=C(C(=O)N1Cc2sc(C#N)cc2[C@H](c2ccccc2-c2cn(CC)nc2C(F)(F)F)C1)c1ccccc1` [Example 63, (S)-4-(2-(1-Ethyl-3-(trifluoromethyl)-1H pyrazol-4-yl)phenyl)-6-(2-phenylacryloyl)-4,5,6,7-tetrahydrothieno[2,3-c]pyridine-2-carbonitrile], the IC50 rises from 7.92 µM to greater than 25 µM. The first is the more potent here.

Compared with `CCn1cc(-c2ccccc2[C@@H]2CN(C(=O)C#CCN3CCN(C)CC3)Cc3sc(C#N)cc32)c(C(F)(F)F)n1` [Example 143, (S)-4-(2-(1-Ethyl-3-(trifluoromethyl)-1 H pyrazol-4-yl)phenyl)-6-(4-(4-methylpiperazin-1-yl)but-2-ynoyl)-4,5,6,7-tetrahydrothieno[2,3-c]pyridine-2-carbonitrile], `CCn1cc(-c2ccccc2[C@@H]2CN(C(=O)C#CC3(N)CCC3)Cc3sc(C#N)cc32)c(C(F)(F)F)n1` [Example 137, (S)-6-(3-(1-Aminocyclobutyl)propioloyl)-4-(2-(1-ethyl-3-(trifluoromethyl)-1 H pyrazol-4-yl)phenyl)-4,5,6,7-tetrahydrothieno[2,3-c]pyridine-2-carbonitrile] is 6.1-fold lower in IC50: 2.18 µM for the first, 0.36 µM for the second. The second is the more potent here.

First: CCn1cc(-c2cc(Cl)ccc2C2CN(C(=O)/C=C/CN(C)C)Cc3sc(C#N)cc32)c(C(F)(F)F)n1 (stereo not shown) [Example 212, (E)-4-(4-Chloro-2-(1-ethyl-3-(trifluoromethyl)-1 H-pyrazol-4-yl)phenyl)-6-(4-(dimethylamino)but-2-enoyl)-4,5,6,7-tetrahydrothieno[2,3-c]pyridine-2-carbonitrile]
Second: CCn1cc(-c2cc(F)ccc2C2CN(C(=O)/C=C/CN(C)C)Cc3sc(C#N)cc32)c(C(F)(F)F)n1 (stereo not shown) [Example 211, (E)-6-(4-(Dimethylamino)but-2-enoyl)-4-(2-(1-ethyl-3-(trifluoromethyl)-1 H-pyrazol-4 yl)-4-fluorophenyl)-4,5,6,7-tetrahydrothieno[2,3-c]pyridine-2-carbonitrile]
The IC50 of the first is 1.7-fold lower: 11.7 µM for the first, 20.2 µM for the second. The first is the more potent here.

`CCn1cc(-c2cccc(O)c2C2CN(C(=O)/C=C/CN(C)C)Cc3sc(C#N)cc32)c(C(F)(F)F)n1` (stereo not shown) [Example 204, (E)-6-(4-(Dimethylamino)but-2-enoyl)-4-(2-(1-ethyl-3-(trifluoromethyl)-1 H-pyrazol-4-yl)-6-hydroxyphenyl)-4,5,6,7-tetrahydrothieno[2,3-c]pyridine-2-carbonitrile] and `CCn1cc(-c2ccc(O)cc2C2CN(C(=O)/C=C/CN(C)C)Cc3sc(C#N)cc32)c(C(F)(F)F)n1` (stereo not shown) [Example 205, (E)-6-(4-(Dimethylamino)but-2-enoyl)-4-(2-(1-ethyl-3-(trifluoromethyl)-1 H-pyrazol-4-yl)-5-hydroxyphenyl)-4,5,6,7-tetrahydrothieno[2,3-c]pyridine-2-carbonitrile] cannot be ordered by IC50: greater than 25 µM for the first, greater than 25 µM for the second.

`CCn1cc(-c2sccc2C2CN(C(=O)/C=C/CN(C)C)Cc3sc(C#N)cc32)c(C(F)(F)F)n1` (stereo not shown) [Example 207, (E)-6-(4-(Dimethylamino)but-2-enoyl)-4-(2-(1-ethyl-3-(trifluoromethyl)-1H pyrazol-4-yl)thiophen-3-yl)-4,5,6,7-tetrahydrothieno[2,3-c]pyridine-2-carbonitrile] and `CCn1cc(-c2ccc(N)cc2C2CN(C(=O)/C=C/CN(C)C)Cc3sc(C#N)cc32)c(C(F)(F)F)n1` (stereo not shown) [Example 196, (E)-4-(5-Amino-2-(1-ethyl-3-(trifluoromethyl)-1 H-pyrazol-4-yl)phenyl)-6-(4-(dimethylamino)but-2-enoyl)-4,5,6,7-tetrahydrothieno[2,3-c]pyridine-2-carbonitrile] cannot be ordered by IC50: greater than 25 µM for the first, greater than 25 µM for the second.

Going from `CCn1cc(-c2cc(CO)ccc2C2CN(C(=O)/C=C/CN(C)C)Cc3sc(C#N)cc32)c(C(F)(F)F)n1` (stereo not shown) [Example 194, (E)-6-(4-(Dimethylamino)but-2-enoyl)-4-(2-(1-ethyl-3-(trifluoromethyl)-1 H-pyrazol-4-yl)-4-(hydroxymethyl)phenyl)-4,5,6,7-tetrahydrothieno[2,3-c]pyridine-2-carbonitrile] to `CCn1cc(-c2c(C3CN(C(=O)/C=C/CN(C)C)Cc4sc(C#N)cc43)ccnc2F)c(C(F)(F)F)n1` (stereo not shown) [Example 202, (E)-6-(4-(Dimethylamino)but-2-enoyl)-4-(3-(1-ethyl-3-(trifluoromethyl)-1 H-pyrazol-4-yl)-2-fluoropyridin-4-yl)-4,5,6,7-tetrahydrothieno[2,3-c]pyridine-2-carbonitrile], the IC50 falls from greater than 25 µM to 24.9 µM.

`CN(C)C/C=C/C(=O)N1Cc2sc(C#N)cc2[C@H](c2ccccc2-c2cn(CCC(=O)O)nc2C(F)(F)F)C1` [Example 173, (S, E)-3-(4-(2-(2-Cyano-6-(4-(dimethylamino)but-2-enoyl)-4,5,6,7-tetrahydrothieno[2,3-c]pyridin-4-yl)phenyl)-3-(trifluoromethyl)-1H-pyrazol-1-yl)propanoic acid] and `CCOC(=O)Cn1cc(-c2ccccc2[C@@H]2CN(C(=O)/C=C/CN(C)C)Cc3sc(C#N)cc32)c(C(F)(F)F)n1` [Example 169, Ethyl (S,E)-2-(4-(2-(2-cyano-6-(4-(dimethylamino)but-2-enoyl)-4,5,6,7-tetrahydrothieno[2,3-c]pyridin-4-yl)phenyl)-3-(trifluoromethyl)-1 H-pyrazol-1-yl)acetate] are within 1.5-fold of each other in IC50: 17.3 µM for the first, 14.5 µM for the second.

Compared with `CN(C)C/C=C/C(=O)N1Cc2sc(C#N)cc2C(c2ccccc2-c2c[nH]nc2C(F)(F)F)C1` (stereo not shown) [Example 152, (E)-6-(4-(Dimethylamino)but-2-enoyl)-4-(2-(3-(trifluoromethyl)-1H-pyrazol-4-yl)phenyl)-4,5,6,7-tetrahydrothieno[2,3-c]pyridine-2-carbonitrile], `CN(C)C/C=C/C(=O)N1Cc2sc(C#N)cc2[C@H](c2ccccc2-c2cn(CC(F)(F)F)nc2C(F)(F)F)C1` [Example 19, (S, E)-6-(4-(Dimethylamino)but-2-enoyl)-4-(2-(1-(2,2,2-trifluoroethyl)-3-(trifluoromethyl)-1 H-pyrazol-4-yl)phenyl)-4,5,6,7-tetrahydrothieno[2,3-c]pyridine-2-carbonitrile] is 1.7-fold lower in IC50: 10.4 µM for the first, 6.12 µM for the second.

Going from `CCn1cc(-c2c(F)cccc2[C@@H]2CN(C(=O)/C=C/CN[C@H]3CCOC3)Cc3sc(C#N)cc32)c(C(F)(F)F)n1` [Example 56, (S)-4-(2-(1-ethyl-3-(trifluoromethyl)-1 H-pyrazol-4-yl)-3-fluorophenyl)-6-((E)-4-(((S)-tetrahydrofuran-3-yl)amino)but-2-enoyl)-4,5,6,7-tetrahydrothieno[2,3-c]pyridine-2-carbonitrile] to `CCn1cc(-c2c(F)cccc2[C@@H]2CN(C(=O)/C=C/CNC3CCN(C(C)=O)C3)Cc3sc(C#N)cc32)c(C(F)(F)F)n1` (stereo partly drawn) [Example 58, (4S)-6-((E)-4-((1-acetylpyrrolidin-3-yl)amino)but-2-enoyl)-4-(2-(1-ethyl-3-(trifluoromethyl)-1 H-pyrazol-4-yl)-3-fluorophenyl)-4,5,6,7-tetrahydrothieno[2,3-c]pyridine-2-carbonitrile], the IC50 rises from 1.09 µM to 6.06 µM (5.6-fold). The first is the more potent here.

`CCn1cc(-c2ccccc2[C@@H]2CN(C(=O)/C=C/[C@@H](C)NC)Cc3sc(C#N)cc32)c(C(F)(F)F)n1` [Example 87, (S)-4-(2-(1-Ethyl-3-(trifluoromethyl)-1 H-pyrazol-4-yl)phenyl)-6-((R, E)-4-(methylamino)pent-2-enoyl)-4,5,6,7-tetrahydrothieno[2,3-c]pyridine-2-carbonitrile] and `CCn1cc(-c2ccccc2[C@@H]2CN(C(=O)/C=C/[C@H](N)CO)Cc3sc(C#N)cc32)c(C(F)(F)F)n1` [Example 73, (S)-6-((S,E)-4-Amino-5-hydroxypent-2-enoyl)-4-(2-(1-ethyl-3-(trifluoromethyl)-1H pyrazol-4-yl)phenyl)-4,5,6,7-tetrahydrothieno[2,3-c]pyridine-2-carbonitrile] are within 1.5-fold of each other in IC50: 18.2 µM for the first, 21.9 µM for the second.

`CCn1cc(-c2ccccc2[C@@H]2CN(C(=O)/C=C/CNC3(C)COC3)Cc3sc(C#N)cc32)c(C(F)(F)F)n1` [Example 95, (S, E)-4-(2-(1-Ethyl-3-(trifluoromethyl)-1 H-pyrazol-4-yl)phenyl)-6-(4-((3-methyloxetan-3-yl)amino)but-2-enoyl)-4,5,6,7-tetrahydrothieno[2,3-c]pyridine-2-carbonitrile] and `CN(C)C/C=C/C(=O)N1Cc2sc(C#N)cc2[C@H](c2ccccc2-c2cn(CCc3ccccn3)nc2C(F)(F)F)C1` [Example 176, (S, E)-6-(4-(Dimethylamino)but-2-enoyl)-4-(2-(1-(2-(pyridin-2-yl)ethyl)-3-(trifluoromethyl)-1H-pyrazol-4-yl)phenyl)-4,5,6,7-tetrahydrothieno[2,3-c]pyridine-2-carbonitrile] are within 1.5-fold of each other in IC50: 15.6 µM for the first, 19.9 µM for the second.
